Experimental findings from patent US8685369B2, “Technetium- and rhenium-bis (heteroaryl) complexes, and methods of use thereof” (priority 2004, dated 2014) are described below.

The format of this data set is physicochemical. On the procedure: The stability and robustness of the technetium-di(pyridine) complexes was assessed using challenges with free cysteine and histidine. Specifically, the experiments were performed using [^99mTc(CO)3(dipyridinemethylamine)]^+1.
[^99mTc(CO)3(H2O)3]^+ was heated with [{N,N-di(pyridyl-2-methyl)}N-butyl-phthalimide in 0.5 mL (1 mg/mL) of methanol at 100° C. for 60 minutes. […] The product eluted with methanol at 20.8 minutes. The HPLC analysis was performed using a Supelco C18 column, 25 cm×4.6 mm column (5 μm pore size), equipped with 2 cm guard using solvent A=0.05 M triethylammonium phosphate buffer pH 2.5 and solvent B=methanol. The method employed was a gradient 5-95% B, 1 mL/minute for 30 minutes. The gradient ramped from 5-95 from 3-20 minutes.

As to [^99mTc(CO)3(dipyridinemethylamine)]^+1, the “stability in challenges with free cysteine and histidine” value was “stable”. For the same substance, under “aqueous solution, cysteine, 18 hours at 37° C. at pH 7.4”, the “change in the components by HPLC on incubation with cysteine” value was “no significant change”.
